Test system: S. aureus NCTC 8325 persister cells
Assay: Persister cell assay I
Type: cell-based
Conditions: gentamicin-selected persisters in PBS; 70 h; 2.4 μM PK/X17-1-150, 24 μM sorafenib, 5 μg/mL ciprofloxacin

Row | SMILES | viable persister cells (CFU/mL) vs DMSO control
1 | O=C(O)c1cn(C2CC2)c2cc(N3CCNCC3)c(F)cc2c1=O [ciprofloxacin, reference compound] | no change

Test system: S. aureus NCTC 8325 persister cells
Assay: Persister cell assay II
Type: cell-based
Conditions: TSB, with or without 30 μg/mL oxacillin; 20 h or 70 h; 2.4 μM PK/X17-1-150 or PK/X17-4-011, 24 μM sorafenib or PK/X17-2-011, 5 μg/mL ciprofloxacin
Procedure: Persister cell assay II. Tryptic soy broth (50 mL in 250 mL culture flasks) was inoculated 1:1000 with overnight cultures of NCTC 8325 and grown at 37° C. and 200 rpm until an OD600 of 4 was reached or overnight (ON). Serial dilution were prepared and plated to determine the cell numbers in the inoculum. […]. […] After 20 h (A) or 70 h (B) of treatment, cells were harvested, washed two times with PBS (10000×g, 3 min), serially diluted and plated on agar plates for determination of surviving cell numbers.

Row | SMILES | viable persister cells (CFU/mL) vs DMSO control
2 | CNC(=O)c1cc(Oc2ccc(NC(=O)Nc3ccccc3)cc2)ccn1 [Reference Example 5, N-Methyl-4-(4-(3-phenylureido)phenoxy)picolinamide] | no change
3 | O=C(O)c1cn(C2CC2)c2cc(N3CCNCC3)c(F)cc2c1=O [ciprofloxacin, reference compound] | no change
4 | O=C(Nc1ccccc1)Nc1ccc2c(c1)OC(F)(F)O2 [Reference Example 1, 1-(2,2-Difluorobenzo[d][1,3]dioxol-5-yl)-3-phenylurea] | no change

Test system: Staphylococcus aureus NCTC8325
Assay: Minimal inhibitory concentration (MIC) assay
Type: cell-based
Conditions: Staphylococcus aureus, NCTC8325; inhibition of bacterial growth of S. aureus NCTC 8325; obtained by MIC assay
Procedure: Minimum inhibitory concentrations (MICs) represent the lowest concentration of sample that will inhibit the visible growth of a microorganism after overnight incubation, and was obtained by a 96 well plate-based assay (Thermo Scientific) with serial dilutions of the probes tested. […] Bacteria were diluted in fresh medium to a concentration of 10^5 CFU/mL. In the case of all other bacteria species tested, fresh media was inoculated 1/10000 and directly used for testing. Diluted bacterial cultures (99 μL) were added to various concentrations of probe (1 μL of the respective stock in DMSO). A growth control containing DMSO (1 μL) and cultivated medium (99 μL) and a sterile control containing fresh medium (100 μL) were run on every 96 well plate in triplicates. After incubation at 37° C. with gentle shaking (200 rpm) for 24 h, the dilution series was analysed for microbial growth, usually indicated by turbidity and/or a pellet of bacteria at the bottom of the well. The lowest concentration in the dilution series at which no growth of bacteria could be observed by eye was defined as the minimum inhibitory concentration (MIC) of the probe. MIC values were determined by three independent experiments with at least triplicate runs for each concentration. […] Both compounds were tested against various bacterial strains. […] The assay was performed as described above.

Row | SMILES | IC50 [nM]
5 | O=C(Nc1ccc(Cl)c(C(F)(F)F)c1)Nc1cccc2c1OC(F)(F)O2 [Example 9, 1-(4-Chloro-3-(trifluoromethyl)phenyl)-3-(2,2-difluorobenzo[d][1,3]dioxol-4-yl)urea] | 1000
6 | O=C(Nc1ccc(Cl)c(C(F)(F)F)c1)Nc1ccc2ccccc2c1 [Example 11, 1-(4-Chloro-3-(trifluoromethyl)phenyl)-3-(naphthalen-2-yl)urea] | 1000
7 | Cc1cc(NC(=O)Nc2ccc3c(c2)OC(F)(F)O3)ccc1Cl [Example 14, 1-(4-Chloro-3-methylphenyl)-3-(2,2-difluorobenzo[d][1,3]dioxol-5-yl)urea] | 1000
8 | O=C(Nc1ccccc1)Nc1ccc(Cl)c(C(F)(F)F)c1 [Example 16, 1-(4-Chloro-3-(trifluoromethyl)phenyl)-3-phenylurea] | 3000
9 | C#CCCC1(CCNC(=O)c2cc(Oc3ccc(NC(=O)Nc4ccc(Cl)c(C(F)(F)F)c4)cc3)ccn2)N=N1 [Probe compound, N-(2-(3-(but-3-yn-1-yl)-3H-diazirin-3-yl)ethyl)-4-(4-(3-(4-chloro-3-(trifluoromethyl)phenyl)ureido)phenoxy)picolinamide] | 10000
10 | O=C(Nc1ccc(Cc2ccccc2)cc1)Nc1ccc(Cl)c(C(F)(F)F)c1 [Example 12, 1-(4-Benzylphenyl)-3-(4-chloro-3-(trifluoromethyl)phenyl)urea] | 1000
11 | CCCCOC(=O)c1ccc(NC(=O)Nc2ccc(Cl)c(C(F)(F)F)c2)cc1 [Example 17, Butyl 4-(3-(4-chloro-3-(trifluoromethyl)phenyl)ureido)benzoate] | 600
12 | CNC(=O)c1ccc(NC(=O)Nc2ccc(Cl)c(C(F)(F)F)c2)cc1 [Example 3, 4-(3-(4-Chloro-3-(trifluoromethyl)phenyl)ureido)-N-methylbenzamide] | 30000
13 | O=C(Nc1cccc(NC(=O)Nc2ccc(Cl)c(C(F)(F)F)c2)c1)Nc1ccc(Cl)c(C(F)(F)F)c1 [Example 19] | 1000
14 | CNC(=O)c1cc(Oc2ccc(NC(=O)Nc3ccccc3)cc2)ccn1 [Reference Example 5, N-Methyl-4-(4-(3-phenylureido)phenoxy)picolinamide] | > 100000
15 | FC1(F)Oc2ccc(NC(=S)Nc3ccc(Cl)c(C(F)(F)F)c3)cc2O1 [Example 10, 1-(4-Chloro-3-(trifluoromethyl)phenyl)-3-(2,2-difluorobenzo[d][1,3]dioxol-5-yl)thiourea] | 1000
16 | CCCCCCCCNC(=O)Nc1ccc2c(c1)OC(F)(F)O2 [Reference Example 4, 1-(2,2-Difluorobenzo[d][1,3]dioxol-5-yl)-3-octylurea] | > 100000
17 | COc1cc(NC(=O)Nc2ccc(Cl)c(C(F)(F)F)c2)cc(OC)c1OC [Example 8, 1-(4-Chloro-3-(trifluoromethyl)phenyl)-3-(3,4,5-trimethoxyphenyl)urea] | 30000
18 | COc1ccc(NC(=O)Nc2ccc(Cl)c(C(F)(F)F)c2)cc1 [Example 5, 1-(4-Chloro-3-(trifluoromethyl)phenyl)-3-(4-methoxyphenyl)urea] | 3000
19 | O=C(Nc1cccc(C(F)(F)F)c1)Nc1ccc2c(c1)OC(F)(F)O2 [Example 15, 1-(2,2-difluorobenzo[d][1,3]dioxol-5-yl)-3-(3-(trifluoromethyl)phenyl)urea] | 1000
20 | O=C(Nc1ccc(Oc2ccccc2)cc1)Nc1ccc(Cl)c(C(F)(F)F)c1 [Example 18, 1-(4-Chloro-3-(trifluoromethyl)phenyl)-3-(4-phenoxyphenyl)urea] | 600
21 | O=C(Nc1ccc2c(c1)OCO2)Nc1ccc(Cl)c(C(F)(F)F)c1 [Example 6, 1-(Benzo[d][1,3]dioxol-5-yl)-3-(4-chloro-3-(trifluoromethyl)phenyl)urea] | 10000
22 | CCc1ccc(NC(=O)Nc2ccc(Cl)c(C(F)(F)F)c2)cc1 [Example 13, 1-(4-Chloro-3-(trifluoromethyl)phenyl)-3-(4-ethylphenyl)urea] | 1000
23 | O=C(Nc1ccc(C(=O)c2ccccc2)cc1)Nc1ccc(Cl)c(C(F)(F)F)c1 [Example 2, 1-(4-Benzoylphenyl)-3-(4-chloro-3-(trifluoromethyl)phenyl)urea] | 1000
24 | Cc1cc(C)c(NC(=O)Nc2ccc3c(c2)OC(F)(F)O3)c(C)c1 [Reference Example 3, 1-(2,2-Difluorobenzo[d][1,3]dioxol-5-yl)-3-mesitylurea] | > 100000
25 | COc1ccc(NC(=O)Nc2ccc(Cl)c(C(F)(F)F)c2)cc1OC [Example 7, 1-(4-Chloro-3-(trifluoromethyl)phenyl)-3-(3,4-dimethoxyphenyl)urea] | 30000
26 | Cc1ccc(NC(=O)Nc2ccc3c(c2)OC(F)(F)O3)cc1 [Reference Example 2, 1-(2,2-Difluorobenzo[d][1,3]dioxol-5-yl)-3-(p-tolyl)urea] | > 100000
27 | O=C(Nc1ccccc1)Nc1ccc2c(c1)OC(F)(F)O2 [Reference Example 1, 1-(2,2-Difluorobenzo[d][1,3]dioxol-5-yl)-3-phenylurea] | > 100000
28 | COC(=O)c1cccc(Oc2ccc(NC(=O)Nc3ccc(Cl)c(C(F)(F)F)c3)cc2)c1 [Example 1, Methyl 3-(4-(3-(4-chloro-3-(trifluoromethyl)phenyl)ureido)phenoxy)benzoate] | 500

Source: US12187696B2, “Urea motif containing compounds and derivatives thereof as antibacterial drugs” (Technische Universität München, priority 2016, dated 2025)
